SMILES strings stand for the structures. Converted amounts (≈) assume the structure as drawn.

For the first assay, the system named is Human Rhinovirus serotypes HRV- 2,-29,-39,-85,-9,-15,-51,-59,-63,-89,-41. Put plainly: Picornavirus Minimal Inhibitory Concentration Test (cytopathic effect reduction assay), first panel of rhinoviruses. Type of assay: cell-based. Conditions: Human rhinovirus sp.; medium value of the IC50-values of all serotypes of the first panel; Ohio Hela cells, 3 to 5 days at 33°C; concentration protecting 50% of the cells from cytopathic effects; read-out: Med₁. On the procedure:
(§1) The Minimal Inhibitory Concentration of the compounds of the present invention against the Human Rhinovirus strains (HRV) -2,-9,-14,-15,-29,-39,-41,-42,-45,-51,-59,-63, -70,-72,-85,-86,-89 was determined by a standard cytopathic effect reduction assay as follows. To each of the ninty six (96) wells of a microtiter 96 well tissue culture plate there was added 60 µl of a Ohio Hela cell maintenance medium [Eagle's Basal medium supplemented with 5% Foetal Calf Serum (FCS)]. To two wells there was added 60 µl of an appropriate starting dilution of a compound of formula (I) and two-fold dilutions were made to cover a wide range of compound concentrations. Subsequently there were added 120 µl of an infectious solution of virus in Eagle's Basal Medium with 2% Hepes buffer, 2% FCS and 30 mM MgCl₂ to all wells except cell and compound controls. Said infectious virus solution having a TCID₅₀-value (Tissue Culture Infectious Dose) of about 100.
(§2) The TCID₅₀-value is the dose of viruses which initiates a cytopathic effect in 50% of the inoculated cells. 150 µl of the thus obtained virus-compound mixtures were then transferred to microtitre plates with subconfluent Ohio Hela Cells, grown in 100 µl of maintenance medium. Appropriate virus controls, cell controls and compound controls were included in each test. […] The IC₅₀-value for each virus-compound series was taken as the concentration in ng/ml that protected 50% of the cells from cytopathic effects with respect to the untreated controls. In the standard test procedure, the compounds were tested against two panels of rhinoviruses, a first panel consisting of serotypes HRV- 2,-29,-39,-85,-9,-15,-51,-59,-63,-89,-41 and the other panel consisting of HRV-42,-45,-14,-70,-72 and -86.
(§3) The IC₅₀-value for each rhinovirus serotype was determined, and the efficacy of each compound was determined in terms of the Med₁-value and Med₂-value, which is the medium value of the IC₅₀-values of all serotypes from the first and second panel respectively.
Take `CCOC(=O)c1ccc(OCCC2CN(c3ccc(Cl)nn3)CCO2)cc1` (stereo not drawn) [compound 11]: the IC50 was found to be 6 ng/mL (≈ 0.0153 µM).
The same measure, in the same setting: with `CCOC(=O)c1ccc(OCCC2CN(c3ccc(Br)nn3)CCO2)cc1` (stereo not drawn) [compound 17] the figure was 2 ng/mL (≈ 0.00458 µM); with `CCOC(=O)c1ccc(OCCC2CN(c3ccc(I)nn3)CCO2)cc1` (stereo not drawn) [compound 20], 2 ng/mL (≈ 0.00414 µM).
On to `CCOC(=O)c1ccc(OCCC2CN(c3nnc(C)s3)CCO2)cc1` (stereo not drawn) [compound 21], for which the IC50 is 6 ng/mL (≈ 0.0159 µM).
`CCOC(=O)c1ccc(OCCC2CN(c3ccc(SC)nn3)CCO2)cc1` (stereo not drawn) [compound 23, ethyl 4-[2-[4-[6-(methylthio)-3-pyridazinyl]-2-morpholinyl]ethoxy]benzoate]: the IC50 worked out at 3 ng/mL (≈ 0.00743 µM).
As for `CCOC(=O)c1ccc(OCCC2CN(c3ccc(C)nn3)CCO2)cc1` (stereo not drawn) [compound 26], the IC50 came out at 5 ng/mL (≈ 0.0135 µM).

In another assay the test system is Human Rhinovirus serotypes HRV-42,-45,-14,-70,-72 and -86. As to the kind of experiment: Picornavirus Minimal Inhibitory Concentration Test (cytopathic effect reduction assay), second panel of rhinoviruses. Type of assay: cell-based. To be noted: Human rhinovirus sp., HRV42, HeLa, read-out: Med₂. On the procedure: as §1, §2, §3
In the case of `CCOC(=O)c1ccc(OCCC2CN(c3ccc(Cl)nn3)CCO2)cc1` (stereo not drawn) [compound 11], the IC50 was determined as 29 ng/mL (≈ 0.074 µM).
Consider `CCOC(=O)c1ccc(OCCC2CN(c3ccc(Br)nn3)CCO2)cc1` (stereo not drawn) [compound 17], for which the IC50 was determined as 22 ng/mL (≈ 0.0504 µM).
As for `CCOC(=O)c1ccc(OCCC2CN(c3ccc(I)nn3)CCO2)cc1` (stereo not drawn) [compound 20], the IC50 was 12 ng/mL (≈ 0.0248 µM).
Still for that read-out and setting: with `CCOC(=O)c1ccc(OCCC2CN(c3nnc(C)s3)CCO2)cc1` (stereo not drawn) [compound 21] the figure was 21 ng/mL (≈ 0.0556 µM); with `CCOC(=O)c1ccc(OCCC2CN(c3ccc(SC)nn3)CCO2)cc1` (stereo not drawn) [compound 23, ethyl 4-[2-[4-[6-(methylthio)-3-pyridazinyl]-2-morpholinyl]ethoxy]benzoate], 12 ng/mL (≈ 0.0297 µM).
Turning to `CCOC(=O)c1ccc(OCCC2CN(c3ccc(C)nn3)CCO2)cc1` (stereo not drawn) [compound 26], the IC50 came to 29 ng/mL (≈ 0.0781 µM).

Source of the values: patent EP0398426A1, “Antirhinoviral (thio)morpholinyl and piperazinyl alkylphenol ethers” (JANSSEN PHARMACEUTICA N.V., priority 1989, dated 1990).
